These results are taken from PMC10107299, “Neutralizing the Impact of the Virulence Factor LecA from Pseudomonas aeruginosa on Human Cells with New Glycomimetic Inhibitors” (Angewandte Chemie (International Ed. in English), 2023).

The assay relates to P. aeruginosa PAO1. Description: Invasion assay of P. aeruginosa PAO1 into H1299 cells. Type of assay: cell-based, Pseudomonas aeruginosa. The procedure:
P. aeruginosa is able to invade non‐phagocytic cells via a lipid zipper mechanism.[10] Binding of LecA to the glycosphingolipid Gb3 followed by LecA‐induced receptor clustering plays a crucial role in this process. The LecA ligand 4‐nitrophenyl α‐ D‐galactopyranoside (PNPG) has been previously shown to interfere with these events at a high concentration of 10 mM leading to a reduction of bacterial invasiveness to 30–60 % as compared to untreated bacteria (100 % invasiveness).[10, 31] For invasion assays, H1299 cells were incubated with P. aeruginosa in presence and absence of LecA inhibitors, followed by killing of extracellular bacteria with the antibiotic amikacin. Then, all intracellular bacteria were released by lysis of the human cells and viable bacteria were quantified by plating. To assess the impact of LecA inhibitors on the invasiveness, the influence of the divalent LecA inhibitor L2 on bacterial invasion into host cells was evaluated and compared to PNPG. […] In contrast, the divalent LecA ligand L2 achieved an invasion decrease to 44 % already at 100 μM (Figure 5c). L2 was thus able to reach a similar reduction of invasion at a 100‐fold lower concentration than the one needed for PNPG. […]
lectin-inhibitor solution for 24 h at 37 °C. In order to depict exactly the same position for each wound, marker lines were drawn on the bottom of the 12-well plates for each well. The samples were imaged with an EVOS microscope (PEQLAB by VWR Life Sciences, Avantor […]
Excel. […]
A chromosomally GFP-tagged Gentamicin-resistant Pseudomonas aeruginosa PAO1 strain was cultured (LB medium supplemented with 60 µg/mL Gentamicin, 37 °C, 180 rpm, 16 h) and invasion assays were performed in analogy to Eierhoff et al..[13] 1.5 x 10^4 H1299 cells per well were seeded one day prior to the invasion assay in a 96-well plate with flat bottom. An […]
overnight culture of P. aeruginosa was centrifuged for 5 min at 3000 x g, washed with PBS (- /-) and re-suspended in RPMI 1640 medium. The newly synthesized divalent LecA ligand L2 was compared to 4-nitrophenyl α-D-galactopyranoside (PNPG; Sigma-Aldrich, Chemie GmbH, Darmstadt, Germany). […]
Subsequently, cells were washed three times with DPBS and lysed by incubation with 0.25% (v/v) Triton X-100 (Carl Roth GmbH & Co. KG, Karlsruhe, Germany) for 5 min at 37 °C and 180 rpm. […] Bacterial colonies were counted the next day. […] The invasion rate was calculated as the number of intracellularly localized bacteria divided by the total number of non-treated bacteria, bacteria that were not treated with any ligands and neither amikacin, thus the number of P. aeruginosa that successfully invaded or stayed attached to the host cells. Experiments were repeated independently at least four times (N ≥ 4) and evaluated […]

Regarding `O=C(CCc1ccc(O[C@@H]2O[C@H](CO)[C@H](O)[C@H](O)[C@H]2O)cc1)Nc1ccc(CCc2ccc(NC(=O)CCc3ccc(O[C@@H]4O[C@H](CO)[C@H](O)[C@H](O)[C@H]4O)cc3)cc2S(=O)(=O)O)c(S(=O)(=O)O)c1` [Compound L2], the “Lower concentration than PNPG for similar reduction of invasion” value (100 μM L2 vs 10 mM PNPG) worked out at 100 fold. Besides, for the setting “100 μM inhibitor, PAO1 into H1299 cells, N≥4”, the “Bacterial invasiveness (untreated bacteria 100 %)” value is recorded as 44%.
